From patent US20230111310A1, “CARBOXYLIC ACID DERIVATIVE-SUBSTITUTED IMINO ARYL COMPOUND, PREPARATION METHOD THEREFOR, HERBICIDAL COMPOSITION AND USE THEREOF” (Qingdao Kingagroot Chemical Compound Co., Ltd., priority 2020, published 2023)

Key:
Assay in all cases: Weeding effect in post-emergence stage
Format in all cases: in vivo
Abutilon theophrasti = conditions: for Weeding effect in post-emergence stage, Abutilon theophrasti: level of fresh weight growth control rate; for Weeding effect in post-emergence stage, Abutilon theophrasti (level): fresh weight control rate level
In short: (§1)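 Read-out is growth control rate, counted 3 weeks post-spray and averaged over three repeats. Greenhouse plants at the 2-3 leaf stage received spray-tower application at 500, 250, 125, 60, 30, 15 or 7.5 g/ha, with methyl oleate EC (1.5 liter/ha) and Tween 80 added.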

Alopecurus japonicus = conditions: for Weeding effect in post-emergence stage, Alopecurus japonicus: level of fresh weight growth control rate; for Weeding effect in post-emergence stage, Alopecurus japonicus (level): fresh weight control rate level
In short: as §1

Digitaria sanguinalis = conditions: for Weeding effect in post-emergence stage, Digitaria sanguinalis: level of fresh weight growth control rate; for Weeding effect in post-emergence stage, Digitaria sanguinalis (level): fresh weight control rate level
In short: as §1

Eleusine indica = conditions: for Weeding effect in post-emergence stage, Eleusine indica: level of fresh weight growth control rate; for Weeding effect in post-emergence stage, Eleusine indica (level): fresh weight control rate level
In short: as §1

Setaria viridis = conditions: for Weeding effect in post-emergence stage, Setaria viridis: level of fresh weight growth control rate; for Weeding effect in post-emergence stage, Setaria viridis (level): fresh weight control rate level
In short: as §1

Echinochloa crusgalli = conditions: for Weeding effect in post-emergence stage, Echinochloa crusgalli: level of fresh weight growth control rate; for Weeding effect in post-emergence stage, Echinochloa crusgalli (level): fresh weight control rate level
In short: as §1

Row | SMILES | Weeding effect in post-emergence stage, Abutilon theophrasti (Abutilon theophrasti; Dose 15 g/ha) | Weeding effect in post-emergence stage, Alopecurus japonicus (Alopecurus japonicus; Dose 15 g/ha) | Weeding effect in post-emergence stage, Digitaria sanguinalis (Digitaria sanguinalis; Dose 15 g/ha) | Weeding effect in post-emergence stage, Eleusine indica (Eleusine indica; Dose 15 g/ha) | Weeding effect in post-emergence stage, Setaria viridis (Setaria viridis; Dose 15 g/ha) | Weeding effect in post-emergence stage, Echinochloa crusgalli (Echinochloa crusgalli; Dose 15 g/ha) | Weeding effect in post-emergence stage, Abutilon theophrasti (Abutilon theophrasti; Dose 30 g/ha) | Weeding effect in post-emergence stage, Alopecurus japonicus (Alopecurus japonicus; Dose 30 g/ha) | Weeding effect in post-emergence stage, Digitaria sanguinalis (Digitaria sanguinalis; Dose 30 g/ha) | Weeding effect in post-emergence stage, Eleusine indica (Eleusine indica; Dose 30 g/ha) | Weeding effect in post-emergence stage, Setaria viridis (Setaria viridis; Dose 30 g/ha) | Weeding effect in post-emergence stage, Echinochloa crusgalli (Echinochloa crusgalli; Dose 30 g/ha) | other results
1 | COC(=O)C(C)O/N=C/c1cc(-n2c(=S)cc(C(F)(F)F)n(C)c2=O)c(F)cc1Cl (racemic) [Compound 349] | 5 (Level 5: growth control rate is above 85%) | 5 (Level 5: growth control rate is above 85%) | 5 (Level 5: growth control rate is above 85%) | 5 (Level 5: growth control rate is above 85%) | 5 (Level 5: growth control rate is above 85%) | 5 (Level 5: growth control rate is above 85%) | – | – | – | – | – | – | –
2 | CC(C#N)OC(=O)C(C)O/N=C/c1cc(-n2c(=O)cc(C(F)(F)F)n(C)c2=O)c(F)cc1Cl (stereo not drawn) [Compound 443] | – | – | – | – | – | – | – | – | – | – | – | – | Weeding effect in post-emergence stage, Abutilon theophrasti (level) (Abutilon theophrasti; Dose 15 g/ha): 5 (Level 5: growth control rate is above 85%); Weeding effect in post-emergence stage, Alopecurus japonicus (level) (Alopecurus japonicus; Dose 15 g/ha): 5 (Level 5: growth control rate is above 85%); Weeding effect in post-emergence stage, Digitaria sanguinalis (level) (Digitaria sanguinalis; Dose 15 g/ha): 5 (Level 5: growth control rate is above 85%); Weeding effect in post-emergence stage, Eleusine indica (level) (Eleusine indica; Dose 15 g/ha): 5 (Level 5: growth control rate is above 85%); Weeding effect in post-emergence stage, Setaria viridis (level) (Setaria viridis; Dose 15 g/ha): 5 (Level 5: growth control rate is above 85%); Weeding effect in post-emergence stage, Echinochloa crusgalli (level) (Echinochloa crusgalli; Dose 15 g/ha): 5 (Level 5: growth control rate is above 85%)
3 | COCCOC(=O)[C@@H](C)O/N=C/c1cc(-n2c(=O)cc(C(F)(F)F)n(C)c2=O)c(F)cc1Cl [230(R)] | 5 (Level 5: growth control rate is above 85%) | 5 (Level 5: growth control rate is above 85%) | 5 (Level 5: growth control rate is above 85%) | 5 (Level 5: growth control rate is above 85%) | 5 (Level 5: growth control rate is above 85%) | 5 (Level 5: growth control rate is above 85%) | – | – | – | – | – | – | –
4 | CCSC(=O)C(C)O/N=C/c1cc(-n2c(=O)n(C)c(=S)n(C)c2=O)c(F)cc1Cl (racemic) [Compound 168] | 5 (Level 5: growth control rate is above 85%) | 5 (Level 5: growth control rate is above 85%) | 5 (Level 5: growth control rate is above 85%) | 5 (Level 5: growth control rate is above 85%) | 5 (Level 5: growth control rate is above 85%) | 5 (Level 5: growth control rate is above 85%) | – | – | – | – | – | – | –
5 | CC(O/N=C/c1cc(-n2c(=O)cc(C(F)(F)F)n(C)c2=O)c(F)cc1Cl)C(=O)OCC1OCCO1 (stereo not drawn) [Compound 266] | – | – | – | – | – | – | 5 (Level 5: growth control rate is above 85%) | 5 (Level 5: growth control rate is above 85%) | 5 (Level 5: growth control rate is above 85%) | 5 (Level 5: growth control rate is above 85%) | 5 (Level 5: growth control rate is above 85%) | 5 (Level 5: growth control rate is above 85%) | –
6 | CCCCOCCOC(=O)C(C)O/N=C/c1cc(-n2c(=O)cc(C(F)(F)F)n(C)c2=O)c(F)cc1Cl (stereo not drawn) [Compound 232] | 5 (Level 5: growth control rate is above 85%) | 5 (Level 5: growth control rate is above 85%) | 5 (Level 5: growth control rate is above 85%) | 5 (Level 5: growth control rate is above 85%) | 5 (Level 5: growth control rate is above 85%) | 5 (Level 5: growth control rate is above 85%) | – | – | – | – | – | – | –
7 | CC(O/N=C/c1cc(-n2c(=O)cc(C(F)(F)F)n(C)c2=O)c(F)cc1Cl)C(=O)OC(C)(C)C (racemic) [Compound 202] | 5 (Level 5: growth control rate is above 85%) | 5 (Level 5: growth control rate is above 85%) | 5 (Level 5: growth control rate is above 85%) | 5 (Level 5: growth control rate is above 85%) | 5 (Level 5: growth control rate is above 85%) | 5 (Level 5: growth control rate is above 85%) | – | – | – | – | – | – | –
8 | COC(=O)C(C)O/N=C/c1nc(-n2c(=O)cc(C(F)(F)F)n(C)c2=O)c(F)cc1Cl (stereo not drawn) [Compound 504] | – | – | – | – | – | – | – | – | – | – | – | – | Weeding effect in post-emergence stage, Abutilon theophrasti (level) (Abutilon theophrasti; Dose 15 g/ha): 5 (Level 5: growth control rate is above 85%); Weeding effect in post-emergence stage, Alopecurus japonicus (level) (Alopecurus japonicus; Dose 15 g/ha): 5 (Level 5: growth control rate is above 85%); Weeding effect in post-emergence stage, Digitaria sanguinalis (level) (Digitaria sanguinalis; Dose 15 g/ha): 5 (Level 5: growth control rate is above 85%); Weeding effect in post-emergence stage, Eleusine indica (level) (Eleusine indica; Dose 15 g/ha): 5 (Level 5: growth control rate is above 85%); Weeding effect in post-emergence stage, Setaria viridis (level) (Setaria viridis; Dose 15 g/ha): 5 (Level 5: growth control rate is above 85%); Weeding effect in post-emergence stage, Echinochloa crusgalli (level) (Echinochloa crusgalli; Dose 15 g/ha): 5 (Level 5: growth control rate is above 85%)
9 | COC(=O)C(C)O/N=C/c1cc(-n2c(=O)cc(C(F)(F)F)n(C)c2=S)c(F)cc1Cl (stereo not drawn) [Compound 347] | – | – | – | – | – | – | 5 (Level 5: growth control rate is above 85%) | 5 (Level 5: growth control rate is above 85%) | 5 (Level 5: growth control rate is above 85%) | 5 (Level 5: growth control rate is above 85%) | 5 (Level 5: growth control rate is above 85%) | 5 (Level 5: growth control rate is above 85%) | –
10 | COC(=O)CCOC(=O)[C@@H](C)O/N=C/c1cc(-n2c(=O)cc(C(F)(F)F)n(C)c2=O)c(F)cc1Cl [240(R)] | – | – | – | – | – | – | 5 (Level 5: growth control rate is above 85%) | 5 (Level 5: growth control rate is above 85%) | 5 (Level 5: growth control rate is above 85%) | 5 (Level 5: growth control rate is above 85%) | 5 (Level 5: growth control rate is above 85%) | 5 (Level 5: growth control rate is above 85%) | –
11 | CCOC(=O)C(O/N=C/c1cc(-n2c(=O)cc(C(F)(F)F)n(C)c2=O)c(F)cc1Cl)C1CC1 (stereo not drawn) [Compound 319] | – | – | – | – | – | – | 5 (Level 5: growth control rate is above 85%) | 5 (Level 5: growth control rate is above 85%) | 5 (Level 5: growth control rate is above 85%) | 5 (Level 5: growth control rate is above 85%) | 5 (Level 5: growth control rate is above 85%) | 5 (Level 5: growth control rate is above 85%) | –
